Test results reported in US8609635B2, “Fused tricyclic silyl compounds and methods of use thereof for the treatment of viral diseases” (priority 2010, dated 2013).
Read-outs that look alike come from different tables or passages of the source.

Tests used:
HCV replicon gt1a_H77 = assay: Cell-based HCV replicon assay (TaqMan), genotype 1a (H77); conditions: replicon 1a (H77), replicon RNA by TaqMan, day 3
Method: (§1) Measurement of inhibition by compounds of the present invention was performed using the HCV replicon system. Several different replicons encoding different HCV genotypes or mutations were used. In addition, potency measurements were made using different formats of the replicon assay, including different ways of measurements and different plating formats. See Jan M. Vrolijk et al., A replicons-based bioassay for the measurement of interferons in patients with chronic hepatitis C, 110 J. VIROLOGICAL METHODS 201 (2003); Steven S. Carroll et al., Inhibition of Hepatitis C Virus RNA Replication by 2′-Modified Nucleoside Analogs, 278(14) J. BIOLOGICAL […] 11979 (2003). However, the underlying principles are common to all of these determinations, and are outlined below.
(§2) Compounds of the present invention were assayed for cell-based anti-HCV activity using the following protocol. Replicon cells were seeded at 5000 cells/well in 96-well collagen I-coated Nunc plates in the presence of the test compound. Various concentrations of test compound, typically in 10 serial 2-fold dilutions, were added to the assay mixture, with the starting concentration ranging from 250 μM to 1 μM. The final concentration of DMSO was 0.5%, fetal bovine serum was 5%, in the assay media. Cells were harvested on day 3 by the addition of 1× cell lysis buffer (Ambion cat #8721). The replicon RNA level was measured using real time PCR (TaqMan® assay). The amplicon was located in 5B. The PCR primers were: 5B.2F, […] (SEQ. ID NO. 1); 5B.2R, […] (SEQ. ID NO. 2); the probe sequence was FAM-labeled […] (SEQ. ID NO. 3). GAPDH RNA was used as endogenous control and was amplified in the same reaction as NS5B (multiplex PCR) using primers and VIC-labeled probe recommended by the manufacturer (PE Applied Biosystem). The real-time RT-PCR reactions were run on ABI PRISM 7900HT Sequence Detection System using the following program: 48° C. for 30 minutes, 95° C. for 10 minutes, 40 cycles of 95° C. for 15 sec, 60° C. for 1 minute. The ΔCT values (CT5B-CTGAPDH) were plotted against the concentration of test compound and fitted to the sigmoid dose-response model using XLfit4 (MDL). […] Alternatively, to quantitate the absolute amount of replicon RNA, a standard curve was established by including serially diluted T7 transcripts of replicon RNA in the Taqman assay. All TaqMan® reagents were from PE Applied Biosystems. Such an assay procedure was described in detail in e.g. Malcolm et al., Antimicrobial Agents and Chemotherapy 50: 1013-1020 (2006).
(§3) Wherein gt1a_H77 was prepared as described in Yi et al., J Virol. 2004, 78(15):7904-15; gt1b_con1 was prepared as described in Lohmann et al., Science 1999, 285(5424):110-3; and gt2a_JFH was prepared as described in Kato et al., Gastroenterology. 2003, 125(6):1808-17. Chimeric replicons contain NS5A from patient isolates of genotypes 1a, 1b, 2b, 3a and 4a as indicated.

HCV replicon gt1b_con1 = assay: Cell-based HCV replicon assay (TaqMan), genotype 1b (Con1); conditions: replicon 1b (Con1), replicon RNA by TaqMan, day 3
Method: as §1, §2, §3

HCV replicon gt2a_JFH = assay: Cell-based HCV replicon assay (TaqMan), genotype 2a (JFH); conditions: replicon 2a (JFH), replicon RNA by TaqMan, day 3
Method: as §1, §2, §3

[1] = test system: HCV chimeric replicon with NS5A of genotype 2b (AB03090); assay: Cell-based HCV replicon assay (TaqMan), chimeric replicon genotype 2b (AB03090); conditions: replicon RNA by TaqMan, day 3
Method: as §1, §2, §3

[2] = test system: HCV chimeric replicon with NS5A of genotype 3a (NC00982); assay: Cell-based HCV replicon assay (TaqMan), chimeric replicon genotype 3a (NC00982); conditions: replicon RNA by TaqMan, day 3
Method: as §1, §2, §3

[3] = test system: HCV chimeric replicon with NS5A of genotype 4a (DQ41878); assay: Cell-based HCV replicon assay (TaqMan), chimeric replicon genotype 4a (DQ41878); conditions: read-out: HCV replicon EC50 4a (DQ41878)
Method: as §1, §2, §3

[4] = test system: HCV replicon 1a (Y93H) mutant; assay: Cell-based HCV replicon assay (TaqMan), genotype 1a mutant Y93H; conditions: read-out: HCV replicon EC50 1a (Y93H)
Method: as §1, §2, §3

[5] = test system: HCV replicon 1a (L31V) mutant; assay: Cell-based HCV replicon assay (TaqMan), genotype 1a mutant L31V; conditions: read-out: HCV replicon EC50 1a (L31V)
Method: as §1, §2, §3

[6] = Hepatitis C virus, 72 h, read-out: HCV replicon EC50 2b (AB03090), chimeric replicon 2b (AB03090)
[7] = Hepatitis C virus, 72 h, read-out: HCV replicon EC50 3a (NC00982), chimeric replicon 3a (NC00982)
[8] = read-out: HCV replicon EC50 2b (AB03090), chimeric replicon 2b (AB03090)
[9] = read-out: HCV replicon EC50 3a (NC00982), chimeric replicon 3a (NC00982)
[10] = chimeric replicon 4a (DQ41878), replicon RNA by TaqMan, day 3
[11] = replicon 1a mutant Y93H, replicon RNA by TaqMan, day 3

## COC(=O)N[C@H](C(=O)N1C[Si](C)(C)C[C@H]1c1ncc(-c2ccc(-c3ccc4c(ccc5nc([C@@H]6CC(F)(F)CN6C(=O)[C@@H](NC(=O)OC)C(C)C)[nH]c54)c3)cc2)[nH]1)C(C)C [Compound 54]
HCV replicon gt1a_H77; Hepatitis C virus, 72 h
  EC50: 0.009 nM
HCV replicon gt1b_con1; Hepatitis C virus, 72 h
  EC50: 0.002 nM
HCV replicon gt2a_JFH; Hepatitis C virus, 72 h
  EC50: 0.03 nM
[1]; [6]
  EC50: 128 nM
[2]; [7]
  EC50: 0.18 nM
[3]; Hepatitis C virus, 72 h
  EC50: 0.02 nM
[4]; Hepatitis C virus, 72 h
  EC50: 65 nM
[5]; Hepatitis C virus, 72 h
  EC50: 10 nM

## COC(=O)N[C@H](C(=O)N1C[Si](C)(C)C[C@H]1c1ncc(-c2ccc(-c3ccc4c(ccc5nc([C@@H]6CC(F)(F)CN6C(=O)[C@@H](NC(=O)OC)C(C)C)[nH]c54)c3)nc2)[nH]1)C(C)C [Compound 66]
HCV replicon gt1a_H77; Hepatitis C virus, 72 h
  EC50: 0.002 nM
HCV replicon gt1b_con1; Hepatitis C virus, 72 h
  EC50: 0.005 nM
HCV replicon gt2a_JFH; Hepatitis C virus, 72 h
  EC50: 0.08 nM
[1]; [6]
  EC50: > 100 nM
[2]; [7]
  EC50: 0.15 nM
[4]; Hepatitis C virus, 72 h
  EC50: 260 nM
[5]; Hepatitis C virus, 72 h
  EC50: 32 nM

## COC(=O)N[C@H](C(=O)N1CC(F)(F)C[C@H]1c1ncc(-c2ccc(-c3ccc4c(ccc5nc([C@@H]6C[Si](C)(C)CN6C(=O)[C@@H](NC(=O)OC)C(C)C)[nH]c54)c3)cc2)[nH]1)C(C)C [Compound 92]
HCV replicon gt1a_H77
  EC50: 0.015 nM
HCV replicon gt1b_con1
  EC50: 0.003 nM
HCV replicon gt2a_JFH
  EC50: 0.02 nM
[1]; [8]
  EC50: 48 nM
[2]; [9]
  EC50: 0.35 nM
[3]; [10]
  EC50: 0.02 nM
[4]; [11]
  EC50: 46 nM

## COC(=O)N[C@H](C(=O)N1C[Si](C)(C)C[C@H]1c1ncc(-c2ccc(-c3ccc4c(ccc5nc([C@@H]6CC(F)(F)CN6C(=O)[C@@H](NC(=O)OC)C(C)C)[nH]c54)c3)cc2)[nH]1)C(C)C [Compound 94]
HCV replicon gt1a_H77
  EC50: 0.008 nM
HCV replicon gt1b_con1
  EC50: 0.002 nM
HCV replicon gt2a_JFH
  EC50: 0.03 nM
[1]; [8]
  EC50: 129 nM
[2]; [9]
  EC50: 0.2 nM
[3]; [10]
  EC50: 0.02 nM
[4]; [11]
  EC50: 65 nM
[5]; replicon 1a mutant L31V, replicon RNA by TaqMan, day 3
  EC50: 10 nM

## COC(=O)N[C@H](C(=O)N1CC[C@H](C)[C@H]1c1ncc(-c2ccc(-c3ccc4c(ccc5nc([C@@H]6C[Si](C)(C)CN6C(=O)[C@@H](NC(=O)OC)C(C)C)[nH]c54)c3)cc2)[nH]1)C(C)C [Compound 96]
HCV replicon gt1a_H77; Hepatitis C virus, 72 h
  EC50: 0.04 nM
HCV replicon gt1b_con1; Hepatitis C virus, 72 h
  EC50: 0.004 nM
HCV replicon gt2a_JFH; Hepatitis C virus, 72 h
  EC50: 0.013 nM
[1]; [6]
  EC50: 49.3 nM
[2]; [7]
  EC50: 0.099 nM
[3]; Hepatitis C virus, 72 h
  EC50: 0.936 nM
[4]; Hepatitis C virus, 72 h
  EC50: 51 nM
[5]; Hepatitis C virus, 72 h
  EC50: 1 nM

## COC(=O)N[C@H](C(=O)N1C[Si](C)(C)C[C@H]1c1nc2ccc3cc(-c4ccc(-c5cnc([C@@H]6C[C@H]7C[C@H]7N6C(=O)[C@@H](NC(=O)OC)C(C)C)[nH]5)cc4)ccc3c2[nH]1)C(C)C [Compound 97]
HCV replicon gt1a_H77; Hepatitis C virus, 72 h
  EC50: 0.005 nM
HCV replicon gt1b_con1; Hepatitis C virus, 72 h
  EC50: 0.002 nM
HCV replicon gt2a_JFH; Hepatitis C virus, 72 h
  EC50: 0.005 nM
[1]; [6]
  EC50: 17.1 nM
[2]; [7]
  EC50: 0.09 nM
[3]; Hepatitis C virus, 72 h
  EC50: 0.029 nM
[4]; Hepatitis C virus, 72 h
  EC50: 30 nM
[5]; Hepatitis C virus, 72 h
  EC50: 15 nM

## COC(=O)N[C@H](C(=O)N1C[Si](C)(C)C[C@H]1c1nc2ccc3cc(-c4ccc(-c5cnc([C@@H]6[C@@H]7C[C@@H]([C@@H](F)[C@H]7F)N6C(=O)[C@@H](NC(=O)OC6(C)CC6)C(C)C)[nH]5)cc4)ccc3c2[nH]1)C(C)C [Compound 101]
HCV replicon gt1a_H77; Hepatitis C virus, 72 h
  EC50: > 1 nM
HCV replicon gt1b_con1; Hepatitis C virus, 72 h
  EC50: 0.023 nM
HCV replicon gt2a_JFH; Hepatitis C virus, 72 h
  EC50: > 10 nM
[2]; [7]
  EC50: 54.6 nM
[3]; Hepatitis C virus, 72 h
  EC50: > 100 nM
[4]; Hepatitis C virus, 72 h
  EC50: > 1000 nM
[5]; Hepatitis C virus, 72 h
  EC50: > 1000 nM

## COC(=O)N[C@H](C(=O)N1C[Si](C)(C)C[C@H]1c1ncc(-c2ccc(-c3ccc4c(ccc5nc([C@H]6[C@@H]7C[C@@H]([C@@H](F)[C@H]7F)N6C(=O)[C@@H](NC(=O)OC)C(C)C)[nH]c54)c3)cc2)[nH]1)C(C)C [Compound 102]
HCV replicon gt1a_H77; Hepatitis C virus, 72 h
  EC50: 0.084 nM
HCV replicon gt1b_con1; Hepatitis C virus, 72 h
  EC50: < 2 nM
HCV replicon gt2a_JFH; Hepatitis C virus, 72 h
  EC50: 0.097 nM
[2]; [7]
  EC50: 7.5 nM
[3]; Hepatitis C virus, 72 h
  EC50: 0.3 nM
[4]; Hepatitis C virus, 72 h
  EC50: 438 nM
[5]; Hepatitis C virus, 72 h
  EC50: 113 nM

## COC(=O)N[C@H](C(=O)N1CC(F)(F)C[C@H]1c1nc2ccc3cc(-c4ccc(-c5cnc([C@@H]6C[Si](C)(C)CN6C(=O)[C@@H](NC(=O)OC)C6CC6)[nH]5)cc4)ccc3c2[nH]1)C(C)C [Compound 105]
HCV replicon gt1a_H77; Hepatitis C virus, 72 h
  EC50: 0.021 nM
HCV replicon gt1b_con1; Hepatitis C virus, 72 h
  EC50: 0.003 nM
HCV replicon gt2a_JFH; Hepatitis C virus, 72 h
  EC50: 0.141 nM
[2]; [7]
  EC50: 0.17 nM
[3]; Hepatitis C virus, 72 h
  EC50: 0.18 nM
[4]; Hepatitis C virus, 72 h
  EC50: 151 nM
[5]; Hepatitis C virus, 72 h
  EC50: 43 nM

## COC(=O)N[C@@H](C)C(=O)N1C[Si](C)(C)C[C@H]1c1ncc(-c2ccc(-c3ccc4c(ccc5nc([C@@H]6CC(F)(F)CN6C(=O)[C@@H](NC(=O)OC)C(C)C)[nH]c54)c3)cc2)[nH]1 [Compound 106]
HCV replicon gt1a_H77; Hepatitis C virus, 72 h
  EC50: 0.016 nM
HCV replicon gt1b_con1; Hepatitis C virus, 72 h
  EC50: 0.006 nM
HCV replicon gt2a_JFH; Hepatitis C virus, 72 h
  EC50: 0.046 nM
[2]; [7]
  EC50: 0.435 nM
[3]; Hepatitis C virus, 72 h
  EC50: 0.429 nM
[4]; Hepatitis C virus, 72 h
  EC50: 52.6 nM
[5]; Hepatitis C virus, 72 h
  EC50: 37.1 nM
